The experiment concerns the target T1, NPY Y2 receptor (Homo sapiens, UniProt P49146).
T1 construct: endogenous in cells; host or cells: KAN-Ts cells (membrane preparation)
T1 sequence (P49146 1-381): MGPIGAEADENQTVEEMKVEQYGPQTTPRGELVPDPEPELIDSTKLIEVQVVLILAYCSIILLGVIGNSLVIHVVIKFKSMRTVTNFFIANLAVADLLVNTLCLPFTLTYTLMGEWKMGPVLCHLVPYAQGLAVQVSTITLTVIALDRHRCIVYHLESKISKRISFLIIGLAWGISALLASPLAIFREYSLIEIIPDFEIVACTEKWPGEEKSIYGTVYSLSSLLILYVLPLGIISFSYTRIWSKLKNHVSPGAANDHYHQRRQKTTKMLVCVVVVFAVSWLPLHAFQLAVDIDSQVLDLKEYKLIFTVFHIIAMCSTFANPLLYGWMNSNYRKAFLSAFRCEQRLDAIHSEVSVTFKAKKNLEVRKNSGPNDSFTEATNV
Nature of the experiment: Neuropeptide Y2 radioligand binding assay ([125I]PYY, KAN-Ts cell membranes). Particulars: membranes of KAN-Ts cells endogenously expressing Y2 receptors; [125I]PYY 80 pM; 1 h at rt; read-out: IC50 (μM), NPY Y2 binding. On the procedure:
KAN-Ts endogenously expressing Y2 receptors were used for the radioligand binding assay. Cells were grown to confluence on 150 cm^2 tissue culture plates, washed with phosphate-buffered saline (PBS), and scraped into 50 mL tubes. After centrifugation, the supernatant was aspirated, and the pellets frozen and stored at −80° C. Thawed pellets were homogenized with a polytron tissue grinder for 15 sec in 20 mM Tris-HCl, 5 mM EDTA. The homogenate was centrifuged at 800×g for 5 min and the collected supernatant was recentrifuged at 25000×g for 25 min. The resulting pellet was resuspended in binding buffer (20 mM HEPES, 120 mM NaCl, 0.22 mM KH2PO4, 1.3 mM CaCl2, 0.8 mM MgSO4). Membranes were incubated with [^125I]PYY (80 pM) in the presence or absence of test compound for 1 h at rt. The reaction was stopped by filtration through GF/C filter plates pre-soaked in 0.3% polyethylenimine and subsequently washed with Tris 50 mM, 5 mM EDTA buffer. Plates were dried for 1 h in a 55° C. oven, scintillation fluid was added and the radioactivity was counted in a Packard TopCount. Specific binding to the NPY receptor subtypes was determined by radioactivity that was bound in the presence of […] NPY. Each binding experiment was repeated three to eight times, each in duplicate. IC50 values (i.e. concentration of unlabelled peptide or antagonist required to compete for 50% of specific binding to the radioligand) were determined using the GraphPad Prism software (GraphPad Software Inc., San Diego Calif.) with a fit to a sigmoidal dose response curve. Apparent K values were as K=IC50/(1+C/KD), where C is concentration of the radioligand.

Structures are written as SMILES.

A word on the IC50: it is the midpoint of a concentration-inhibition curve.

Regarding `CC(C)c1noc(-c2ccc(N3CCN(C(C(=O)N(C)C)c4ccccc4)CC3)c(F)c2)n1` (stereo not shown) [Compound 180, 2-{4-[2-Fluoro-4-(3-isopropyl-[1,2,4]oxadiazol-5-yl)-phenyl]-piperazin-1-yl}-N,N-dimethyl-2-phenyl-acetamide], the IC50 came to 0.15 µM.

For the molecule `CCc1noc(-c2ccc(N3CCN(C(C(=O)N(C)C)c4ccccc4)CC3)c(F)c2)n1` (stereo not shown) [Compound 181, 2-{4-[4-(3-Ethyl-[1,2,4]oxadiazol-5-yl)-2-fluoro-phenyl]-piperazin-1-yl}-N,N-dimethyl-2-phenyl-acetamide], the IC50 amounted to 0.53 µM.

With `Cc1noc(-c2ccc(N3CCN(C(C(=O)N(C)C)c4ccccc4)CC3)c(F)c2)n1` (stereo not shown) [Compound 182, 2-{4-[2-Fluoro-4-(3-methyl-[1,2,4]oxadiazol-5-yl)-phenyl]-piperazin-1-yl}-N,N-dimethyl-2-phenyl-acetamide], the IC50 was determined as 0.56 µM.

Turning to `COC(=O)C(c1ccccc1)N1CCN(c2ccc(-c3nc(C)no3)cc2F)CC1` (stereo not shown) [Compound 183, {4-[2-Fluoro-4-(3-methyl-[1,2,4]oxadiazol-5-yl)-phenyl]-piperazin-1-yl}-phenyl-acetic acid methyl ester], the IC50 was 3.1 µM.

Regarding `CCN(C)C(=O)C(c1ccccc1)N1CCN(c2ccc(-c3nc(C(C)C)no3)cc2F)CC1` (stereo not shown) [Compound 184, N-Ethyl-2-{4-[2-fluoro-4-(3-isopropyl-[1,2,4]oxadiazol-5-yl)-phenyl]-piperazin-1-yl}-N-methyl-2-phenyl-acetamide], the concentration for half-maximal inhibition (IC50) was 2.2 µM.

For the molecule `CC(C)c1noc(-c2ccc(N3CCN(C(C(=O)N4CCCC4)c4ccccc4)CC3)c(F)c2)n1` (stereo not shown) [Compound 185, 2-{4-[2-Fluoro-4-(3-isopropyl-[1,2,4]oxadiazol-5-yl)-phenyl]-piperazin-1-yl}-2-phenyl-1-pyrrolidin-1-yl-ethanone], the IC50 came out at 0.12 µM.

For `CCN(CC)C(=O)C(c1ccccc1)N1CCN(c2ccc(-c3cc(C)nn3-c3ccccc3)cc2F)CC1` (stereo not shown) [Compound 186, N,N-Diethyl-2-{4-[2-fluoro-4-(5-methyl-2-phenyl-2H-pyrazol-3-yl)-phenyl]-piperazin-1-yl}-2-phenyl-acetamide], the IC50 is 0.11 µM.

Consider `CCN(CC)C(=O)C(c1ccccc1)N1CCN(c2ccc(-c3cccn3C(=O)OC(C)(C)C)cc2F)CC1` (stereo not shown) [Compound 187, 2-{4-[4-(Diethylcarbamoyl-phenyl-methyl)-piperazin-1-yl]-3-fluoro-phenyl}-pyrrole-1-carboxylic acid tert-butyl ester], for which the IC50 is 5 µM.

As for `CCN(CC)C(=O)C(c1ccccc1)N1CCN(c2ccc(-c3ccc[nH]3)cc2F)CC1` (stereo not shown) [Compound 188, N,N-Diethyl-2-{4-[2-fluoro-4-(1H-pyrrol-2-yl)-phenyl]-piperazin-1-yl}-2-phenyl-acetamide], the IC50 was determined as 0.63 µM.

For the molecule `Cc1noc(-c2ccc(N3CCN(C(C(=O)N4CCC(F)(F)CC4)c4ccccc4)CC3)c(F)c2)n1` (stereo not shown) [Compound 189, 1-(4,4-Difluoro-piperidin-1-yl)-2-{4-[2-fluoro-4-(3-methyl-[1,2,4]oxadiazol-5-yl)-phenyl]-piperazin-1-yl}-2-phenyl-ethanone], the IC50 was found to be 0.48 µM.

Consider `CCNC(=O)C(c1ccccc1)N1CCN(c2ccc(-c3nc(C)no3)cc2F)CC1` (stereo not shown) [Compound 190, N-Ethyl-2-{4-[2-fluoro-4-(3-methyl-[1,2,4]oxadiazol-5-yl)-phenyl]-piperazin-1-yl}-2-phenyl-acetamide], for which the IC50 amounted to 0.33 µM.

As for `CCN(CC)C(=O)C(c1ccccc1)N1CCN(c2ccc(C3=NN(C(C)C)C(=O)C3)cc2F)CC1` (stereo not shown) [Compound 191, N,N-Diethyl-2-{4-[2-fluoro-4-(1-isopropyl-5-oxo-4,5-dihydro-1H-pyrazol-3-yl)-phenyl]-piperazin-1-yl}-2-phenyl-acetamide], the IC50 is 0.34 µM.

In the case of `CCOC(=O)C(c1ccccc1)N1CCN(c2ccc(-c3nc(C)no3)cc2F)CC1` (stereo not shown) [Compound 192, {4-[2-Fluoro-4-(3-methyl-[1,2,4]oxadiazol-5-yl)-phenyl]-piperazin-1-yl}-phenyl-acetic acid ethyl ester], the half-maximal inhibitory concentration (IC50) came out at 0.38 µM.

With `CCN(CC)C(=O)C(c1ccccc1)N1CCN(c2ccc(-c3ccccc3)cc2F)CC1` (stereo not shown) [Compound 193, N,N-Diethyl-2-[4-(3-fluoro-biphenyl-4-yl)-piperazin-1-yl]-2-phenyl-acetamide], the IC50 is 0.42 µM.

Take `CCN(CC)C(=O)C(c1ccccc1)N1CCN(c2ccc(-c3cccc(Cl)c3)cc2F)CC1` (stereo not shown) [Compound 194, 2-[4-(3′-Chloro-3-fluoro-biphenyl-4-yl)-piperazin-1-yl]-N,N-diethyl-2-phenyl-acetamide]: the IC50 was 0.88 µM.

As for `CCN(CC)C(=O)C(c1ccccc1)N1CCN(c2ccc(-c3cnn(C)c3)cc2F)CC1` (stereo not shown) [Compound 195, N,N-Diethyl-2-{4-[2-fluoro-4-(1-methyl-1H-pyrazol-4-yl)-phenyl]-piperazin-1-yl}-2-phenyl-acetamide], the IC50 amounted to 0.9 µM.

With `CCN(CC)C(=O)C(c1ccccc1)N1CCN(c2ccc(-c3ccc(Cl)cc3)cc2F)CC1` (stereo not shown) [Compound 196, 2-[4-(4′-Chloro-3-fluoro-biphenyl-4-yl)-piperazin-1-yl]-N,N-diethyl-2-phenyl-acetamide], the IC50 stood at 0.92 µM.

On to `CCc1noc(-c2ccc(N3CCN(C(C(=O)N(C)CC)c4ccccc4)CC3)c(F)c2)n1` (stereo not shown) [Compound 197, N-Ethyl-2-{4-[4-(3-ethyl-[1,2,4]oxadiazol-5-yl)-2-fluoro-phenyl]-piperazin-1-yl}-N-methyl-2-phenyl-acetamide], for which the IC50 came to 0.075 µM.

`CC(=O)C(c1ccccc1)N1CCN(c2ccc(-c3nc(C(C)C)no3)cc2F)CC1` (stereo not shown) [Compound 198, 1-{4-[2-Fluoro-4-(3-isopropyl-[1,2,4]oxadiazol-5-yl)-phenyl]-piperazin-1-yl}-1-phenyl-propan-2-one]: the IC50 is 2.7 µM.

In the case of `CCCCC(C(=O)N(CC)CC)N1CCN(c2ccc(-c3nc(C)no3)cc2F)CC1` (stereo not shown) [Compound 199, 2-{4-[2-Fluoro-4-(3-methyl-[1,2,4]oxadiazol-5-yl)-phenyl]-piperazin-1-yl}-hexanoic acid diethylamide], the IC50 was 2.8 µM.

With `CCN(CC)C(=O)C(c1ccccc1)N1CCN(c2ccc(-c3cc(C)n[nH]3)cc2F)CC1` (stereo not shown) [Compound 200, N,N-Diethyl-2-{4-[2-fluoro-4-(5-methyl-2H-pyrazol-3-yl)-phenyl]-piperazin-1-yl}-2-phenyl-acetamide], the IC50 was found to be 0.81 µM.

Regarding `CCN(CC)C(=O)C(c1ccccc1)N1CCN(c2ccc(-c3ccccn3)cc2F)CC1` (stereo not shown) [Compound 201, N,N-Diethyl-2-[4-(2-fluoro-4-pyridin-2-yl-phenyl)-piperazin-1-yl]-2-phenyl-acetamide], the IC50 was determined as 0.74 µM.

In the case of `CCN(CC)C(=O)C(c1ccccc1)N1CCN(c2ccc(-c3cccnc3)cc2F)CC1` (stereo not shown) [Compound 202, N,N-Diethyl-2-[4-(2-fluoro-4-pyridin-3-yl-phenyl)-piperazin-1-yl]-2-phenyl-acetamide], the IC50 was 1 µM.

Take `CCN(CC)C(=O)C(c1ccccc1)N1CCN(c2ccc(-c3ccc(C)cc3)cc2F)CC1` (stereo not shown) [Compound 204, N,N-Diethyl-2-[4-(3-fluoro-4′-methyl-biphenyl-4-yl)-piperazin-1-yl]-2-phenyl-acetamide]: the IC50 was found to be 0.77 µM.

In the case of `CCN(CC)C(=O)C(c1ccccc1)N1CCN(c2ccc(-c3ccc(OC)cc3)cc2F)CC1` (stereo not shown) [Compound 205, N,N-Diethyl-2-[4-(3-fluoro-4′-methoxy-biphenyl-4-yl)-piperazin-1-yl]-2-phenyl-acetamide], the IC50 amounted to 1.9 µM.

In the case of `CCN(CC)C(=O)C(c1ccccc1)N1CCN(c2ccc(-c3cccc(C)c3)cc2F)CC1` (stereo not shown) [Compound 206], the IC50 was 0.48 µM.

Turning to `CCN(CC)C(=O)C(c1ccccc1)N1CCN(c2ccc(-c3ccc(F)cc3)cc2F)CC1` (stereo not shown) [Compound 207, 2-[4-(3,4′-Difluoro-biphenyl-4-yl)-piperazin-1-yl]-N,N-diethyl-2-phenyl-acetamide], the IC50 came out at 1.1 µM.

Regarding `CCN(CC)C(=O)C(c1ccccc1)N1CCN(c2ccc(-c3nc(C)n[nH]3)cc2F)CC1` (stereo not shown) [Compound 208, N,N-Diethyl-2-{4-[2-fluoro-4-(5-methyl-2H-[1,2,4]triazol-3-yl)-phenyl]-piperazin-1-yl}-2-phenyl-acetamide], the IC50 worked out at 2.9 µM.

For the origin of these results see patent US20120015957A1, “PIPERAZINYL DERIVATIVES USEFUL AS MODULATORS OF THE NEUROPEPTIDE Y2 RECEPTOR” (priority 2007, published 2012).
